Where two headings read alike, the source gives them in different places.
Columns and labels:
[1] = cited from earlier work; for Cmax / AUC0-24 h: Caucasians 18-60 years of age; for Cmax: in ng/mL; for AUC0-24 h: in ng·h/mL
[2] = cited from earlier work; for Cmax / Tmax: arterial
[3] = cited from earlier work
clinical = settings: human, in vivo
[4] = Pharmacokinetics of inhaled (nebulized) esketamine versus IV infusion, arterial concentrations; settings: comparison across Examples 3 and 4, not within the same individuals
[5] = cited from earlier work; remark: listed apart in the source
[6] = inhalation of 0.35 mg/kg esketamine
[7] = inhalation of 0.5 mg/kg esketamine
[8] = inhalation of 0.7 mg/kg esketamine
[9] = IN administration, based upon the models

What does the source list for `N[C@]1(c2ccccc2Cl)CCCCC1=O` [noresketamine]?
Cmax ([1]; 28 mg IN esketamine): 59.1; AUC0-24 h ([1]; 28 mg IN esketamine): 274.4; Cmax ([1]; 56 mg IN esketamine): 119.7; AUC0-24 h ([1]; 56 mg IN esketamine): 516.3; Cmax ([1]; 84 mg IN esketamine): 180; AUC0-24 h ([1]; 84 mg IN esketamine): 758; Cmax [2, 6]: 52 ng/mL; Tmax [2, 6]: 63 min; Cmax [2, 7]: 97 ng/mL; Tmax [2, 7]: 48 min; Cmax [2, 8]: 153 ng/mL; Tmax [2, 8]: 41 min

Which bioavailability ([3]; IM/SC dose) does the source give for `C=CCN1CC[C@]23c4c5ccc(O)c4O[C@H]2C(=O)CC[C@@]3(O)[C@H]1C5` [naloxone] here?
The bioavailability was 98.3%.

What about the bioavailability ([3]; nasal spray) of the same compound?
The bioavailability was 40-55%.

And the “K (elimination rate constant), best-fit value” (0.4 mg IV, single elimination model)?
Its value is 12.16 h⁻¹.

And the “kabs (absorption rate constant)” value (IN doses of 1, 2 and 4 mg, best fit of one-phase association and dissociation model)?
The value was 4.47 h⁻¹.

And the “elimination rate-constant, mean value” (IN doses of 1, 2 and 4 mg, model fit)?
The value was 0.82 h⁻¹.

And the Cmax (clinical; 1 mg)?
The Cmax was 2.1 ng/mL.

What about the Cmax (clinical; 2 mg) of the same compound?
Its Cmax is 4.3 ng/mL.

What about the Cmax (clinical; 4 mg) of the same compound?
Its Cmax is 10.1 ng/mL.

And the half-life (clinical; iv, 0.4 mg)?
Its half-life is 3.4 min.

Which Cmax ([1]; 28 mg IN esketamine) does the source give for `CN[C@]1(c2ccccc2Cl)CCCCC1=O` [esketamine, S-ketamine] here?
The Cmax was 43.8.

And the AUC0-24 h ([1]; 28 mg IN esketamine)?
The AUC0-24 h was 147.3.

And the Cmax ([1]; 56 mg IN esketamine)?
The Cmax was 72.5.

What about the AUC0-24 h ([1]; 56 mg IN esketamine) of the same compound?
The AUC0-24 h was 254.7.

And the Cmax ([1]; 84 mg IN esketamine)?
Its Cmax is 101.

What about the AUC0-24 h ([1]; 84 mg IN esketamine) of the same compound?
The AUC0-24 h was 362.2.

And the “fraction of dose absorbed through the nasal cavity” value [1, 9]?
The value was ~54%.

And the “fraction of dose swallowed” value [1, 9]?
The value was 46%.

What about the “swallowed percentage reaching the systemic circulation after first-pass metabolism” value ([1]; IN administration) of the same compound?
The value was 18.6%.

What about the mean absorption time ([1]; absorption through the gut) of the same compound?
The mean absorption time was 2.02 h.

What about the mean absorption time ([1]; absorption through the nasal mucosa) of the same compound?
The mean absorption time was 0.333 h.

And the absolute bioavailability ([1]; intranasal)?
The absolute bioavailability was ~50%.

What about the “fraction of dose directly absorbed through the alveoli” value ([2]; INH administration) of the same compound?
Its value is 70%.

What about the “fraction of dose travelling via a slower pathway (lung, GI or oropharyngeal absorption)” value ([2]; INH administration) of the same compound?
The value was 30%.

What about the “rate constant of the slow transit” value ([2]; INH administration) of the same compound?
Its value is 0.05 min⁻¹.

And the “half-life of the slow transit” value ([2]; INH administration, from rate constant)?
Its value is 13 min.

What about the “dose-dependent reduction in bioavailability” value ([2]; INH, at the higher doses) of the same compound?
Its value is 20%.

And the “modeled F value (extent of bioavailability)” value ([2]; across INH doses, multicompartment model)?
Its value is 0.70.

And the bioavailability ([2]; following INH administration)?
The bioavailability was 70%.

What about the “fraction metabolized to noresketamine” value ([2]; in vivo) of the same compound?
Its value is 78%.

What about the Cmax [2, 6] of the same compound?
Its Cmax is 128 ng/mL.

And the Tmax [2, 6]?
Its Tmax is 22 min.

What about the Cmax [2, 7] of the same compound?
The Cmax was 180 ng/mL.

What about the Tmax [2, 7] of the same compound?
The Tmax was 15 min.

And the Cmax [2, 8]?
Its Cmax is 227 ng/mL.

And the Tmax [2, 8]?
Its Tmax is 25 min.

And the “absorption following INH versus IN” value [4]?
The value was “more rapid”.

For `Cc1cccc([C@H](C)c2cnc[nH]2)c1C` [dexmedetomidine], which “disposition, intravenous versus intranasal administration” value ([5]; 2-compartment disposition model) is on record?
The value was “similar”.

What about the intranasal bioavailability ([5]; both atomization and drops) of the same compound?
Its intranasal bioavailability is ~40%.

What about the “uptake kinetics of atomized and intranasal relative to IV” value ([5]; in vivo, iv) of the same compound?
Its value is “slower update kinetics”.

What about the “absorption rate constant (kabs)” value ([5]; intranasal by atomizer) of the same compound?
The value was 0.857 h⁻¹.

And the “mean transit time (delay in uptake)” value ([5]; intranasal by atomizer)?
The value was 0.176 h.

And the “absorption rate constant (kabs)” value ([5]; intranasal by drops)?
The value was 0.725 h⁻¹.

And the “mean transit time (delay in uptake)” value ([5]; intranasal by drops)?
Its value is 0.163 h.

From US12502480B1, “System and method for administration of a substance” (Abusarah, Inc., priority 2025, dated 2025)
